Assay results from patent US20160281125A1, “ANTIMICROBIAL COMPOUND SUSCEPTIBILITY TEST” (priority 2013, published 2016).

Assays:
[1] = tested on: K. pneumoniae strain 13882; assay: Selective lysis test, BacUni QuickFISH staining (Example 3); assay type: cell-based; settings: FIG. 2; K. pneumoniae 13882; meropenem 10 μg/ml, 30 min, SDS lysis
From the text: (§1) An alternative to the spectrophotometer-based measurement of changes in turbidity for measuring cell lysis following treatment with the cell lysis conditions in Examples 1 and 2 is to stain samples using a stain that distinguishes between intact cells and lysed cells. In this example staining with BacUni QuickFISH™ was used to identify intact (i.e., non-lysed) cells. BacUN1 is a universal bacteria PNA probe that binds to an rRNA sequence present in most Gram-positive and Gram-negative bacteria. The PNA probe binds to universal rRNA in intact bacterial cells and the entire cell will appears green with fluorescent microscopy. If the bacterial cell had been lysed then the rRNA target would have been released from the bacterial cell and even of somewhat labeled it would not appear as a fluorescent bacterial cell.
(§2) An isolated colony from an overnight Tryptocase Soy Agar (TSA) plate of each bacteria was suspended in 1 ml Tryptocase Soy Broth (TSB) in a 5 ml BD polystyrene round bottom tube. TSB cultures were incubated at 37° C. overnight. Ten μl of overnight culture was inoculated into 1 ml TSB and incubated shaking at 37° C. for three hours. Two 250 μl aliquots of each log-phase culture was transferred to two 2 ml Eppendorf microcentrifuge tubes. One tube contained 500 μl of Normal Saline (BD); the second tube contained 500 μl Normal Saline with meropenem at 10 μg/ml. Tubes were inverted and then incubated at 37° C. stagnant for thirty minutes. Then […] (0.5% SDS in PSB) was added to each tube and the tubes were vortexed for 5 seconds. Post incubation, the entire culture was filtered through a 1 uM polycarbonate 18 mm filter. The filter was transferred to a plain glass slide and placed on a 55° C. heat block. Then 2 drops of 100% methanol were added to adhere the filter to the slide. Then 30 μl of BacUni QuickFISH™ hybridization buffer was added to the slide and a 50×22 mm coverslip was applied. The slide was then incubated at 55° C. for 15 minutes. The slide was viewed on fluorescence microscope using 60× oil immersion on Dual TxR/FITC. Images were taken with a 1 second exposure.

[2] = tested on: K. pneumoniae strain BAA1705 KPC+; assay: as above; assay type: cell-based; settings: FIG. 5, meropenem 10 μg/ml, 30 min, SDS lysis
From the text: as §1, §2

[3] = tested on: K. pneumoniae strain 3456; assay: as above; assay type: cell-based; settings: FIG. 1; K. pneumoniae 3456; meropenem 10 μg/ml, 30 min, SDS lysis
From the text: as §1, §2

[4] = tested on: K. pneumoniae strain BAA2146 NDM+; assay: as above; assay type: cell-based; settings: FIG. 5, meropenem 10 μg/ml, 30 min, SDS lysis
From the text: as §1, §2

E. coli strain 35218 [5] = assay: as above; assay type: cell-based; settings: FIG. 3; E. coli 35218; meropenem 10 μg/ml, 30 min, SDS lysis
From the text: as §1, §2

E. coli strain 23858 = assay: as above; assay type: cell-based; settings: FIG. 2; E. coli 23858; meropenem 10 μg/ml, 30 min, SDS lysis
From the text: as §1, §2

[6] = tested on: E. coli strain BAA-197 ESβL; assay: as above; assay type: cell-based; settings: FIG. 1; E. coli BAA-197 ESβL; meropenem 10 μg/ml, 30 min, SDS lysis
From the text: as §1, §2

E. coli strain 25922 = assay: as above; assay type: cell-based; settings: FIG. 3; E. coli 25922; meropenem 10 μg/ml, 30 min, SDS lysis
From the text: as §1, §2

E. aero 13048 = assay: Selective lysis test, OD600 turbidity (Example 1); assay type: cell-based, Enterobacter aerogenes
Experimental: An isolated colony from an overnight Tryptocase Soy Agar (TSA) plate of each bacterial strain was suspended in 1 ml Tryptocasc Soy Broth (TSB) in a 5 ml BD polystyrene round bottom tube. TSB cultures were incubated shaking at 37° C. overnight. Ten of the overnight culture was inoculated into lml TSB and incubated shaking at 37° C. for three hours. Two […] aliquots of each log-phase culture were then transferred to two 2 ml Eppendorf microcentrifuge tubes. One tube contained 5000 of Normal Saline (BD); the second tube contained 5000 Normal Saline with meropenem at 10 μg/ml (final concentration of meropenem of 6.67 10 μg/ml). Tubes were inverted and then incubated at 37° C. stagnant for thirty minutes. Then […] of lysis buffer (0.5% SDS in PSB) (final concentration of SDS of 0.125%) was added to each tube and the tubes were vortexed for 5 seconds. Post incubation, all tubes were spun at 10000 G for 5 minutes. Supernatant was decanted and the pellet resuspended in Normal Saline. Tubes were vortexed again. OD600 was measured using Eppendorf uvettes in a spectrophotometer. The delta between the OD600 of the normal saline control and the OD600 for the test sample exposed to meropenem in normal saline was used to determine susceptibility of the bacterial strain to meropenem.

[7] = tested on: K. pneumoniae strain BAA2146 NDM+; assay: Carbapenem test, Triton fixation buffer and BacUni QuickFISH staining (Example 4); assay type: cell-based
Experimental: (§3) An isolated colony from an overnight Tryptocase Soy Agar (TSA) plate for each bacteria was suspended in 1 ml Tryptocase Soy Broth (TSB) in a 5 ml BD polystyrene round bottom tube. TSB cultures were incubated at 37° C. for 1.5 hours shaking. […] of each stationary-phase culture were transferred to 2 ml Eppendorf microcentrifuge tubes containing 500 μl of Normal Saline (BD); or 500 μl Normal Saline with imipenem, ertapenem, or meropenem at a concentration of […], […], or 40 μg/ml (26.67 μg/ml final concentration). Tubes were inverted then incubated at 37° C. stagnant for thirty minutes. Then 10 μl from each tube was pipetted onto plain glass slide on a 55° C. heat block, followed by 25 μl fixation buffer (0.5% T×100, 100 mM Tris pH 9, 24% Ethanol, and 10 mM NaCl); slide is incubated until sample is dry. Ten μl of BacUni QuickFISH hybridization buffer was added to each slide followed by a 22×22 mm coverslip. The slide was then incubated at 55° C. for 15 minutes. The slides were viewed on a fluorescence microscope 60× oil immersion on Dual TxR/FITC. Images were taken with a 1 second exposure.
(§4) The control fixation in this experiment has all the same components, except no Triton X-100. This was done to assess whether the selective lysis step is required to resolve a difference between susceptible and resistant bacteria.

E. coli strain 35218 [8] = assay: as above; assay type: cell-based; settings: FIG. 9; E. coli 35218; 10 μg/ml
Experimental: as §3, §4

C[C@@H](O)[C@H]1C(=O)N2C(C(=O)O)=C(S[C@@H]3CN[C@H](C(=O)N(C)C)C3)[C@H](C)[C@H]12 [meropenem]
number of BacUni QuickFISH stained cells, treated vs not treated [1]: significant reduction in the number of stained cells | number of BacUni QuickFISH stained cells, treated vs not treated [2]: similarity in the number of stained cells | number of BacUni QuickFISH stained cells, treated vs not treated [3]: significant reduction in the number of stained cells | number of BacUni QuickFISH stained cells, treated vs not treated [4]: similarity in the number of stained cells | number of BacUni QuickFISH stained cells, treated vs not treated (E. coli strain 35218 [5]): significant reduction in the number of stained cells | number of BacUni QuickFISH stained cells, treated vs not treated (E. coli strain 23858): significant reduction in the number of stained cells | number of BacUni QuickFISH stained cells, treated vs not treated [6]: significant reduction in the number of stained cells | number of BacUni QuickFISH stained cells, treated vs not treated (E. coli strain 25922): significant reduction in the number of stained cells | R or S (E. aero 13048): S (a percentage change of greater than about 85% indicates a strain is susceptible) | % Change (E. aero 13048; OD600 vs control without meropenem): 97% | Mero OD600 (E. aero 13048; meropenem 10 μg/ml, 30 min, SDS lysis buffer + vortex): 0.077 | BacUni QuickFISH stained intact cells after meropenem and fixation buffer ([7]; FIG. 8, 10 μg/ml meropenem, fixation buffer with 0.5% Triton X-100): near complete absence of BacUni QuickFISH™ stained intact cells | test result (susceptibility or resistance) by BacUni QuickFISH staining ([7]; FIG. 11, 10 μg/ml): detect resistance | test result (susceptibility or resistance) by BacUni QuickFISH staining (E. coli strain 35218 [8]): detect susceptibility
